{"source": "patent US20240109934A1", "about": "“ANTIBIOTICS WITH IMPROVED DRUG RESISTANCE PROFILE” (priority 2021, published 2024)", "key": {"[1]": {"tested_on": "S. aureus resistant mutants with EF-G (fusA) mutations", "assay": "microbe, parasite or virus in culture", "assay_type": "cell-based", "details": "Staphylococcus aureus", "procedure": "Antimicrobial Susceptibility Tests. Susceptibility testing was performed in biological triplicate, using the micro-dilution broth method as outlined by the Clinical and Laboratory Standards Institute. Bacteria were cultured with cation-adjusted Muller-Hinton broth (Sigma-Aldrich, Cat #90922) in round-bottom 96-well plates (Corning, Cat #3788). Human serum (Ultrafiltrate, unspecified gender, 30K Dalton membrane filtered) was purchased from BioIVT (Hicksville, NY).\nSelection of Resistant Mutants. Resistant mutants were selected via the large inoculum method. Briefly, S. aureus ATCC 29213 (1×10^9 CFU) were plated on 100 mm plates of LB agar containing 4, 2, 1, 0.5, and 0.25 μg/mL.\nSequencing of fusA. FusA was amplified by colony PCR. Colonies were picked and diluted in 100 μL sterile H2O. PCR reactions are setup by combining MiFi Mix (Bioline, London, UK), 20 μM primer mix [fusA-F2, fusA_seq1, Forward EF-G2, and Reverse EF-G](S. aureus ATCC 29213), template DNA, and H2O. Reactions were performed on C1000 Thermal Cycler (Bio-Rad, Hercules, CA) with the following conditions: 5 minutes denaturation at 95° C., followed by 30 cycles of 20 seconds at 95° C., 20 seconds at 50° C., and either 1 minute (fusA1) or 1.5 minutes (fusA2) at 72° C. A 10 μL portion of the PCR reaction mixture was analyzed by agarose gel to confirm the product. PCR reactions were purified using GeneJET PCR Purification Kit (Thermo Scientific). PCR amplicons were submitted to the Core DNA Sequencing Facility at the University of Illinois at Urbana-Champaign for Sanger sequencing with the following primers to sequence the fusA [fusA2, fusA_seq1, Forward EF-G2, Forward EF-G3, Forward EF-G4]"}, "S. aureus ATCC BAA-1721": {"tested_on": "S. aureus ATCC BAA-1721", "assay": "MIC against strain possessing the fusC gene", "assay_type": "cell-based", "details": "Staphylococcus aureus, ATCCBAA1721"}, "[2]": {"assay": "Mouse liver microsome stability assay", "assay_type": "in vitro ADME", "details": "male, CD-1, mouse, microsomes, 3 h, 50 μM, pH 7.4", "outline": "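Compound at 50 μM final (0.5% DMSO) incubated with pooled male CD-1 mouse liver microsomes (1 mg/mL protein) plus NADPH regenerating system in PBS pH 7.4 at 37° C. for 3 h. Samples at 0 and 3 h quenched with internal standard and quantified by LC/MS/MS (MRM).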"}, "[3]": {"tested_on": "multidrug-resistant clinical isolates of S. aureus", "assay": "MIC against multidrug-resistant clinical isolates of S. aureus", "assay_type": "cell-based", "details": "for MIC: Staphylococcus aureus, read-out: MIC"}, "E. faecium ATCC 19434": {"tested_on": "E. faecium ATCC 19434", "assay": "MIC against sensitive E. faecium strain", "assay_type": "cell-based", "details": "Enterococcus faecium, ATCC19434; sensitive strain E. faecium ATCC 19434"}, "[4]": {"tested_on": "human foreskin fibroblasts (HFF-1)", "assay": "Cell viability, Alamar Blue assay", "assay_type": "cell-based", "details": "72 h incubation, error SEM n = 2, listed as FA(1), read-out: IC50, Mammalian Toxicity in HFF-1", "procedure": "Cell Culture. HFF-1 cells were obtained from ATCC. HFF-1 cells were grown in DMEM with 15% fetal bovine serum (Gemini Benchmark, Cat #100-106), 100 U/mL penicillin, and 100 μg/mL streptomycin. All cells were cultured at 37° C. in a 5% CO2 environment. Media was prepared by the University of Illinois School of Chemical Sciences Cell Media Facility.\nCell Viability. Cells were harvested, seeded in a 96 well-plate and allowed to adhere. Cells were treated with investigational compounds in DMSO (1% final concentration). Cells were incubated for 72 h before viability was assessed by the Alamar Blue Assay. Raptinal ([…]) was used as a dead control."}}, "note": "Read-outs that look alike come from different tables or passages of the source."}
{"smiles": "CC(=O)O[C@H]1C[C@@]2(C)[C@@H](C[C@@H](O)[C@H]3[C@@]4(C)CC[C@@H](O)[C@@H](C)[C@@H]4CC[C@@]32C)/C1=C(\\CCC=C(C)C)C(=O)O", "note": "[FA, Fusidic acid]", "values": [{"measurement": "MIC", "setting": "[1]; read-out: MIC for FA, strain FA-32X-1, EF-G H457Y", "result": 128, "unit": "µg/mL"}, {"measurement": "MIC", "setting": "[1]; read-out: MIC for FA, strain FA-32X-2, EF-G T436I", "result": 8, "unit": "µg/mL"}, {"measurement": "MIC", "setting": "[1]; read-out: MIC for FA, strain FA-32X-3, EF-G H457Y", "result": 128, "unit": "µg/mL"}, {"measurement": "MIC", "setting": "[1]; read-out: MIC for FA, strain FA-32X-6, EF-G T436I", "result": 16, "unit": "µg/mL"}, {"measurement": "MIC", "setting": "[1]; read-out: MIC for FA, strain FA-32X-7, EF-G H457Y", "result": 128, "unit": "µg/mL"}, {"measurement": "MIC", "setting": "[1]; read-out: MIC for FA, strain FA-32X-8, EF-G H457Y", "result": 128, "unit": "µg/mL"}, {"measurement": "MIC", "setting": "[1]; read-out: MIC for FA, strain FA-32X-10, EF-G H457Y", "result": 128, "unit": "µg/mL"}, {"measurement": "MIC", "setting": "[1]; read-out: MIC for FA, strain FA-32X-12, EF-G H457Y", "result": 128, "unit": "µg/mL"}, {"measurement": "MIC", "setting": "[1]; read-out: MIC for FA, strain FA-32X-13, EF-G H457Y", "result": 128, "unit": "µg/mL"}, {"measurement": "MIC", "setting": "[1]; read-out: MIC for FA, strain FA-32X-14, EF-G H457Y", "result": 128, "unit": "µg/mL"}, {"measurement": "MIC", "setting": "[1]; read-out: MIC for FA, strain FA-32X-15, EF-G H457Y", "result": 128, "unit": "µg/mL"}, {"measurement": "MIC", "setting": "[1]; read-out: MIC for FA, strain FA-32X-19, EF-G H457Y", "result": 128, "unit": "µg/mL"}, {"measurement": "MIC", "setting": "[1]; read-out: MIC for FA, strain FA-32X-20, EF-G H457Y", "result": 128, "unit": "µg/mL"}, {"measurement": "MIC", "setting": "S. aureus ATCC BAA-1721", "result": 8, "unit": "µg/mL"}, {"measurement": "Metabolic Stability in Mouse Liver Microsomes (percent remaining)", "setting": "[2]", "result": "82 ± 0.8", "unit": "%^"}, {"measurement": "Cross-resistance with vancomycin", "setting": "[3]; 29 clinical isolates of S. aureus", "result": "no cross-resistance with vancomycin"}, {"measurement": "MIC", "setting": "[3]; NRS3, S. aureus NRS3 (NARSA)", "result": 0.0625, "unit": "µg/mL"}, {"measurement": "MIC", "setting": "[3]; NRS4, S. aureus NRS4 (NARSA)", "result": 0.0625, "unit": "µg/mL"}, {"measurement": "MIC", "setting": "[3]; NRS17, S. aureus NRS17 (NARSA)", "result": 0.0625, "unit": "µg/mL"}, {"measurement": "MIC", "setting": "[3]; NRS18, S. aureus NRS18 (NARSA)", "result": 0.125, "unit": "µg/mL"}, {"measurement": "MIC", "setting": "[3]; NRS21, S. aureus NRS21 (NARSA)", "result": 0.0625, "unit": "µg/mL"}, {"measurement": "MIC", "setting": "[3]; NRS22, S. aureus NRS22 (NARSA)", "result": 0.0625, "unit": "µg/mL"}, {"measurement": "MIC", "setting": "[3]; NRS23, S. aureus NRS23 (NARSA)", "result": 0.125, "unit": "µg/mL"}, {"measurement": "MIC", "setting": "[3]; NRS24, S. aureus NRS24 (NARSA)", "result": 0.0625, "unit": "µg/mL"}, {"measurement": "MIC", "setting": "[3]; NRS26, S. aureus NRS26 (NARSA)", "result": 0.0625, "unit": "µg/mL"}, {"measurement": "MIC", "setting": "[3]; NRS27, S. aureus NRS27 (NARSA)", "result": 0.125, "unit": "µg/mL"}, {"measurement": "MIC", "setting": "[3]; NRS29, S. aureus NRS29 (NARSA)", "result": 0.125, "unit": "µg/mL"}, {"measurement": "MIC", "setting": "[3]; NRS51, S. aureus NRS51 (NARSA)", "result": 0.0625, "unit": "µg/mL"}, {"measurement": "MIC", "setting": "[3]; NRS68, S. aureus NRS68 (NARSA)", "result": 0.125, "unit": "µg/mL"}, {"measurement": "MIC", "setting": "[3]; NRS73, S. aureus NRS73 (NARSA)", "result": 0.125, "unit": "µg/mL"}, {"measurement": "MIC", "setting": "[3]; NRS74, S. aureus NRS74 (NARSA)", "result": 0.125, "unit": "µg/mL"}, {"measurement": "MIC", "setting": "[3]; NRS76, S. aureus NRS76 (NARSA)", "result": 0.125, "unit": "µg/mL"}, {"measurement": "MIC", "setting": "[3]; NRS77, S. aureus NRS77 (NARSA), no noted resistance", "result": 0.0625, "unit": "µg/mL"}, {"measurement": "MIC", "setting": "[3]; NRS382, S. aureus NRS382 (NARSA)", "result": 0.0625, "unit": "µg/mL"}, {"measurement": "MIC", "setting": "[3]; NRS383, S. aureus NRS383 (NARSA)", "result": 0.125, "unit": "µg/mL"}, {"measurement": "MIC", "setting": "[3]; NRS384, S. aureus NRS384 (NARSA)", "result": 0.125, "unit": "µg/mL"}, {"measurement": "MIC", "setting": "[3]; S. aureus AR0561 (CDC)", "result": 0.125, "unit": "µg/mL"}, {"measurement": "MIC", "setting": "[3]; S. aureus AR0562 (CDC)", "result": 0.125, "unit": "µg/mL"}, {"measurement": "MIC", "setting": "[3]; S. aureus AR0563 (CDC)", "result": 0.125, "unit": "µg/mL"}, {"measurement": "MIC", "setting": "[3]; S. aureus AR0564 (CDC)", "result": 0.125, "unit": "µg/mL"}, {"measurement": "MIC", "setting": "[3]; S. aureus AR0565 (CDC)", "result": 0.0625, "unit": "µg/mL"}, {"measurement": "MIC", "setting": "[3]; S. aureus AR0566 (CDC)", "result": 0.125, "unit": "µg/mL"}, {"measurement": "MIC", "setting": "[3]; S. aureus AR0567 (CDC)", "result": 0.125, "unit": "µg/mL"}, {"measurement": "MIC", "setting": "[3]; S. aureus AR0568 (CDC)", "result": 0.125, "unit": "µg/mL"}, {"measurement": "MIC", "setting": "[3]; S. aureus AR0570 (CDC)", "result": 0.125, "unit": "µg/mL"}, {"measurement": "MIC", "setting": "E. faecium ATCC 19434", "result": 2, "unit": "µg/mL"}, {"measurement": "IC50", "setting": "[4]", "result": "146 ± 11", "unit": "µM"}]}
